Target: human PAD4 (Homo sapiens (Human), UniProt Q9UM07)
Experiment: In Vitro PAD4 BAEE Biochemical Assay
Settings: geometric mean of multiple experiments
Procedure, shortened: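 Deimination of BAEE substrate (3 mM) measured as ammonia via o-phthalaldehyde–DTT isoindole fluorescence, 405/535 nm. Tag-free bacterially expressed human PAD4 at 5 nM with 2 mM calcium chloride, pH 7.6 MOPS buffer, 30 min compound preincubation then 2 h reaction, both at 25 °C.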

[1] = human PAD4, BAEE substrate, 5 nM PAD4, 2 mM calcium chloride, 3 mM BAEE
[2] = recombinant PAD4 5 nM, 2 mM calcium chloride, 3 mM BAEE substrate

Sequence of human PAD4 (Q9UM07 2-663): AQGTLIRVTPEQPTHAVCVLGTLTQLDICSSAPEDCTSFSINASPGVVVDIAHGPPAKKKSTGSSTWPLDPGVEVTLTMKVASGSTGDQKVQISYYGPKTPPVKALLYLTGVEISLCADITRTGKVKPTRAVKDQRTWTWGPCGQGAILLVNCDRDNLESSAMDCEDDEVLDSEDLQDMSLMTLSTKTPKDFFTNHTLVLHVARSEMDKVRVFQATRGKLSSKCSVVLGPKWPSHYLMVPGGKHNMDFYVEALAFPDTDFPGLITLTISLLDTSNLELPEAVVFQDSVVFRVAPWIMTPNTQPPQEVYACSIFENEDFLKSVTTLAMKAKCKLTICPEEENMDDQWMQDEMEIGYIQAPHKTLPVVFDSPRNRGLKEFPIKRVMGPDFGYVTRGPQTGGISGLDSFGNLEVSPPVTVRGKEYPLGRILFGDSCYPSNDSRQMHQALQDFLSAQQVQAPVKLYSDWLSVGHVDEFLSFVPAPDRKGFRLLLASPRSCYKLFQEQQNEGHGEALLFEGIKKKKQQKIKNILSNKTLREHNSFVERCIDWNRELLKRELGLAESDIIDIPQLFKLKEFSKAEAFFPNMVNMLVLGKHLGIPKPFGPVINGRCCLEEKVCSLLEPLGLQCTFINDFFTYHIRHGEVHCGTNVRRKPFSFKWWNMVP

| Compound | IC50 [2] | IC50 [1] |
| --- | --- | --- |
| COc1cc(C(=O)N2C[C@H](N)[C@@H]3CC[C@H]2C3)cc2nc(-c3cc4ccc([C@@H](C)NC(=O)C56CC(C(F)(F)F)(C5)C6)nc4n3CC3CC3)n(C)c12 [Example 230, N-((R)-1-(2-(5-((1S,4R,5R)-4-amino-2-azabicyclo[3.2.1]octane-2-carbonyl)-7-methoxy-1-methyl-1H-benzo[d]imidazol-2-yl)-1-(cyclopropylmethyl)-1H-pyrrolo[2,3-b]pyridin-6-yl)ethyl)-3-(trifluoromethyl)bicyclo[1.1.1] pentane-1-carboxamide] |  | 127 nM |
| COc1cc(C(=O)N2[C@H]3CC[C@@H]2[C@H](N)C3)cc2nc(-c3cc4ccc([C@@H](C)NC(=O)N5CCCC5)nc4n3CC3CC3)n(C)c12 [Example 234, N-((R)-1-(2-(5-((1R,2R,4S)-2-amino-7-azabicyclo[2.2.1]heptane-7-carbonyl)-7-methoxy-1-methyl-1H-benzo[d]imidazol-2-yl)-1-(cyclopropylmethyl)-1H-pyrrolo[2,3-b]pyridin-6-yl)ethyl)pyrrolidine-1-carboxamide] |  | 34.3 nM |
| COc1cc(C(=O)N2[C@H]3CC[C@@H]2[C@H](N)C3)cc2nc(-c3cc4ccc([C@@H](C)NC(=O)N(C)C)nc4n3CC3CC3)n(C)c12 [Example 235, 3-((R)-1-(2-(5-((1R,2R,4S)-2-amino-7-azabicyclo[2.2.1]heptane-7-carbonyl)-7-methoxy-1-methyl-1H-benzo[d]imidazol-2-yl)-1-(cyclopropylmethyl)-1H-pyrrolo[2,3-b]pyridin-6-yl)ethyl)-1,1-dimethylurea] |  | 40.2 nM |
| COc1cc(C(=O)N2[C@H]3CC[C@@H]2[C@H](N)C3)cc2nc(-c3cc4ccc([C@@H](C)NC(=O)N5CC(O)C5)nc4n3CC3CC3)n(C)c12 [Example 236, N-((R)-1-(2-(5-((1R,2R,4S)-2-amino-7-azabicyclo[2.2.1]heptane-7-carbonyl)-7-methoxy-1-methyl-1H-benzo[d]imidazol-2-yl)-1-(cyclopropylmethyl)-1H-pyrrolo[2,3-b]pyridin-6-yl)ethyl)-3-hydroxyazetidine-1-carboxamide] |  | 51.3 nM |

More lines, main results first:

| IC50 [2] | Compound | IC50 [1] |
| --- | --- | --- |
| 55.9 nM | C[C@@H](NC(=O)c1cnn(C2CC2)c1)c1ccc2cc(-c3nc4cc(C(=O)N5C[C@H](N)[C@@H]6CC[C@H]5C6)cc(F)c4n3C3CC3)n(CC3CC3)c2n1 [Example 231, N-((R)-1-(2-(5-((1S,4R,5R)-4-amino-2-azabicyclo[3.2.1]octane-2-carbonyl)-1-cyclopropyl-7-fluoro-1H-benzo[d]imidazol-2-yl)-1-(cyclopropylmethyl)-1H-pyrrolo[2,3-b]pyridin-6-yl)ethyl)-1-cyclopropyl-1H-pyrazole-4-carboxamide] |  |
| 89.8 nM | C[C@@H](NS(=O)(=O)C1CC1)c1ccc2cc(-c3nc4cc(C(=O)N5C[C@H](N)[C@@H]6CC[C@H]5C6)cc(F)c4n3C3CC3)n(CC3CC3)c2n1 [Example 232, N-((R)-1-(2-(5-((1S,4R,5R)-4-amino-2-azabicyclo[3.2.1]octane-2-carbonyl)-1-cyclopropyl-7-fluoro-1H-benzo[d]imidazol-2-yl)-1-(cyclopropyImethyl)-1H-pyrrolo[2,3-b]pyridin-6-yl)ethyl)cyclopropanesulfonamide] |  |
| 78.2 nM | C[C@@H](NC(=O)C12CC(C#N)(C1)C2)c1ccc2cc(-c3nc4cc(C(=O)N5C[C@H](N)[C@@H]6CC[C@H]5C6)cc(F)c4n3C3CC3)n(CC3CC3)c2n1 [Example 233, N-((R)-1-(2-(5-((1S,4R,5R)-4-amino-2-azabicyclo[3.2.1]octane-2-carbonyl)-1-cyclopropyl-7-fluoro-1H-benzo[d]imidazol-2-yl)-1-(cyclopropylmethyl)-1H-pyrrolo[2,3-b]pyridin-6-yl)ethyl)-3-cyanobicyclo[1.1.1]pentane-1-carboxamide] |  |

Source: patent US11878965B2, “Inhibitors of peptidylarginine deiminases” (Gilead Sciences, Inc., priority 2020, dated 2024)
